What all share (format): binding
Assay [1] has as its target T1, HeLa cell extract proteins (Homo sapiens, UniProt O75153).
T1 construct: endogenous in cells; host or cells: HeLa cell extract
T1 sequence (O75153 1-1309): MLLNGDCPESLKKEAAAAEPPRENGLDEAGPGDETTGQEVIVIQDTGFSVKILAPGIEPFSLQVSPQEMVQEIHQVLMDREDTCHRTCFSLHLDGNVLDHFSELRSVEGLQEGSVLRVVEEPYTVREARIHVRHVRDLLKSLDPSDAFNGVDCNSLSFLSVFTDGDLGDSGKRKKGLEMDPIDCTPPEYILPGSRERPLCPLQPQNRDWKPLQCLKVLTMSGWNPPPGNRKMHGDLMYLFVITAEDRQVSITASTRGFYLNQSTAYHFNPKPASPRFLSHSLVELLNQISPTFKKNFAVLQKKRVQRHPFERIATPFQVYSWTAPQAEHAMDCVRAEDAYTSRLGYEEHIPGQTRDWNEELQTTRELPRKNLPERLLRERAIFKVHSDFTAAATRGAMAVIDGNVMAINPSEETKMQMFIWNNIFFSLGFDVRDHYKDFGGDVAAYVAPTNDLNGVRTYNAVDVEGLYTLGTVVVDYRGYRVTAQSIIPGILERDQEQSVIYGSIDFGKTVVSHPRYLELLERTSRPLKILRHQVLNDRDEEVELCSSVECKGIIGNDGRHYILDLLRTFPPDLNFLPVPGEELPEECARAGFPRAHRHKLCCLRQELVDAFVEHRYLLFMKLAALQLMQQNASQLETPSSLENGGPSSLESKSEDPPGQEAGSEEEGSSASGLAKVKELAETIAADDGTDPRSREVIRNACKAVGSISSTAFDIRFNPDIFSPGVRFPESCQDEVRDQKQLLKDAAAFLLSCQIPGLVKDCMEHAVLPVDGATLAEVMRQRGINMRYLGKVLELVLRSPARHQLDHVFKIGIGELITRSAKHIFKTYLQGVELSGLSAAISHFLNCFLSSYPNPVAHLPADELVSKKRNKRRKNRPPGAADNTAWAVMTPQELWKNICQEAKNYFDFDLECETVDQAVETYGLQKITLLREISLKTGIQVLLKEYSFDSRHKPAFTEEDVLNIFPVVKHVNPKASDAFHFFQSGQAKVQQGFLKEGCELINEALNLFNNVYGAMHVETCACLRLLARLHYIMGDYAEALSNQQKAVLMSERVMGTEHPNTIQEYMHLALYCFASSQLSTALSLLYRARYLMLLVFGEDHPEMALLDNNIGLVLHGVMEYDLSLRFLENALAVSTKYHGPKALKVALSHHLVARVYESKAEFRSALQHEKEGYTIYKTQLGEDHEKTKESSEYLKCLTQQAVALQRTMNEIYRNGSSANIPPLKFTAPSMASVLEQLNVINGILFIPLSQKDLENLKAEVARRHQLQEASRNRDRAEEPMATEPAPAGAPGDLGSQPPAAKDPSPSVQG

In assay [2] the target is T2, HeLa cell extract proteins (Homo sapiens, UniProt P49411).
T2 construct: endogenous in cells; host or cells: HeLa cell extract

The target in assay [3] is T3, HeLa cell extract proteins (Homo sapiens, UniProt Q15067).
T3 construct: endogenous in cells; host or cells: HeLa cell extract
T3 sequence (Q15067 1-660): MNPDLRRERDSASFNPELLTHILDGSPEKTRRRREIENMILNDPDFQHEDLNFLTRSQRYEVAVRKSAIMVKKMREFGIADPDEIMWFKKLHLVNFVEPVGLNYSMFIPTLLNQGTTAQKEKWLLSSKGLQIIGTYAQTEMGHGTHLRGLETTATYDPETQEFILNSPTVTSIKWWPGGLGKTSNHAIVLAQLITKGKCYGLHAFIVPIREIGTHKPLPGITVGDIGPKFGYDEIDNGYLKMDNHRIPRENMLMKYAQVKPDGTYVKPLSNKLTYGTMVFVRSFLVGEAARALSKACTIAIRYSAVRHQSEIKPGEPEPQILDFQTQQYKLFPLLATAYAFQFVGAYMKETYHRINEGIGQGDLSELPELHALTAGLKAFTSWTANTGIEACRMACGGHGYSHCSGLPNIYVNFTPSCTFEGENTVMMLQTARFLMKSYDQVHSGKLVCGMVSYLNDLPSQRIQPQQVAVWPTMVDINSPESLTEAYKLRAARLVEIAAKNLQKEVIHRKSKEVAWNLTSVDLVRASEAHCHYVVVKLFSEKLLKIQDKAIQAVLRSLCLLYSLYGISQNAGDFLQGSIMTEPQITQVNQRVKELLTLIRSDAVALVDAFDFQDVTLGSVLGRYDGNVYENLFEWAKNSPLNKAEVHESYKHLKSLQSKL

The target in assay [4] is T4, HeLa cell extract proteins (Homo sapiens, UniProt Q99714).
T4 construct: endogenous in cells; host or cells: HeLa cell extract
T4 sequence (Q99714 1-261): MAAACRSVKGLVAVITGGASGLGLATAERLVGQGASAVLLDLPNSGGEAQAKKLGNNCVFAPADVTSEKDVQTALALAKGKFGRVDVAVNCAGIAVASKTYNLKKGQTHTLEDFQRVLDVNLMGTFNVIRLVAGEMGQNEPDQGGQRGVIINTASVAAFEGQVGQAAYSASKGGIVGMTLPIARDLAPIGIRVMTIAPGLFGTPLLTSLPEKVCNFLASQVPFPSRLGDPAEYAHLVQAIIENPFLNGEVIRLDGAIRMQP

In assay [5] the target is T5, HeLa cell extract proteins (Homo sapiens, UniProt Q9HA64).
T5 construct: endogenous in cells; host or cells: HeLa cell extract
T5 sequence (Q9HA64 1-309): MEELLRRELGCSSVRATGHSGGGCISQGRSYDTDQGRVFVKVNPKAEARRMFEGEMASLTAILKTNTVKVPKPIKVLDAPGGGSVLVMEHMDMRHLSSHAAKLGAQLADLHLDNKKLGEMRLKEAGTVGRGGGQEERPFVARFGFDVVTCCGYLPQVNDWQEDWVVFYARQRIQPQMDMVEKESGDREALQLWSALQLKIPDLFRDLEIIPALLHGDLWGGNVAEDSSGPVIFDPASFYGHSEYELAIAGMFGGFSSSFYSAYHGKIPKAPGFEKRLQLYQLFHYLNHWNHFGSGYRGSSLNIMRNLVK

The target of assay [6] is T6, HeLa cell extract proteins (Homo sapiens, UniProt Q9UII2).
T6 construct: endogenous in cells; host or cells: HeLa cell extract
T6 sequence (Q9UII2 26-106): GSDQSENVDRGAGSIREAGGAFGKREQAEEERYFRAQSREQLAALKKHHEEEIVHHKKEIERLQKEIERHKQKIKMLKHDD

The mark [7] stands for this setting: HeLa, protein FN3KRP (KETOSAMINE-3-KINASE).

Here are results for seven molecules from article PMC6199744, “Development of Chemical Proteomics for the Folateome and Analysis of the Kinetoplastid Folateome” (ACS Infectious Diseases, 2018).

Each structure is given as a SMILES string. Read-outs that look alike come from different tables or passages of the source.

`CCCCCCOc1cccc(Cc2cnc(N)nc2N)c1` [compound 2]: the “fold changes relative to vehicle control” value in assay [1] (HeLa, protein KIAA0664) is recorded as 1.25; in assay [2] (protein TUFM, HeLa) it was 1.68; in assay [3] (HeLa, protein ACOX1) it was 0.92; in assay [4] (protein HSD17B10, HeLa), 1.31; in assay [5] (protein FN3KRP, HeLa), 0.9; in assay [6] (protein ATPIF1, HeLa), 1.32.
As to `NCCOCCOCC(=O)Nc1nc2ncc(CNc3ccc(C(=O)NC(CCC(=O)O)C(=O)O)cc3)nc2c(=O)[nH]1` (stereo not drawn) [compound 6], the “fold changes relative to vehicle control” value in assay [1] (protein KIAA0664, HeLa) turned out to be 1.01; in assay [2] (protein TUFM, HeLa), 1.07; in assay [3] (HeLa, protein ACOX1), 0.99; in assay [4] (HeLa, protein HSD17B10) it was 0.94; in assay [5] (setting [7]), 0.85; in assay [6] (HeLa, protein ATPIF1) it was 1.91.
Regarding `CCCCCCOc1ccc(Cc2cnc(N)nc2N)cc1` [compound 1], the “fold changes relative to vehicle control” value in assay [1] (HeLa, protein KIAA0664) is given as 1.17; in assay [2] (protein TUFM, HeLa) it was 1.18; in assay [3] (HeLa, protein ACOX1), 0.98; in assay [4] (protein HSD17B10, HeLa), 0.91; in assay [5] (protein FN3KRP, HeLa), 1; in assay [6] (protein ATPIF1, HeLa), 0.97.
Turning to `Nc1nc2c(c(=O)[nH]1)N(C=O)C(CNc1ccc(C(=O)N[C@@H](CCC(=O)O)C(=O)O)cc1)CN2` (stereo partly drawn) [LEU, leucovorin], the “fold changes relative to vehicle control” value in assay [1] (protein KIAA0664, HeLa) worked out at 1.17; in assay [2] (protein TUFM, HeLa), 0.93; in assay [3] (HeLa, protein ACOX1), 1; in assay [4] (HeLa, protein HSD17B10) it was 0.93; in assay [5] (setting [7]), 1.08; in assay [6] (HeLa, protein ATPIF1), 1.
In the case of `NCCCNc1ccc(C(=O)NC(CCC(=O)O)C(=O)O)cc1` (stereo not drawn) [compound 7], the “fold changes relative to vehicle control” value amounted to 1.12 in assay [1] (protein KIAA0664, HeLa); 0.88 in assay [2] (protein TUFM, HeLa); 0.94 in assay [3] (HeLa, protein ACOX1); 0.93 in assay [4] (HeLa, protein HSD17B10); 1.07 in assay [5] (setting [7]); 1.41 in assay [6] (HeLa, protein ATPIF1).
Regarding `Nc1nc2[nH]cc(CCc3ccc(C(=O)N[C@@H](CCC(=O)O)C(=O)O)cc3)c2c(=O)[nH]1` [PTX, pemetrexed], the “fold changes relative to vehicle control” value in assay [1] was 1.07; in assay [2], 0.97; in assay [3], 0.95; in assay [4], 0.9; in assay [5], 1.01; in assay [6], 1.84.
Take `Nc1nc2cccc(-c3ccccc3)c2n1Cc1ccc(Cl)c(Cl)c1` [compound 3]: the “fold changes relative to vehicle control” value in assay [1] (HeLa, protein KIAA0664) stood at 1.11; in assay [2] (protein TUFM, HeLa), 0.92; in assay [3] (HeLa, protein ACOX1) it was 1.33; in assay [4] (protein HSD17B10, HeLa), 0.93; in assay [5] (protein FN3KRP, HeLa) it was 1.04; in assay [6] (protein ATPIF1, HeLa) it was 0.91.
